Laboratory results reported in patent US11685726B2, “Pharmaceutical compositions of 6-(2-(2H-tetrazol-5-yl)ethyl)-6-fluorodecahydroisoquinoline-3-carboxylic acid and ester derivatives thereof” (Sea Pharmaceuticals LLC, priority 2020, dated 2023).

What was measured:
[1] = LCMS bioanalysis of compound levels in rat samples (plasma, CSF, brain) after administration; type: in vivo; settings: lower limit of quantification 1 ng/ml
Source text: Measurement of Compound 1 or Compound 2 from rat samples (plasma, cerebral spinal fluid “CSF” or brain homogenate) was done by high resolution using a sensitive LCMS method.
Extracts of biological samples (either organic solvent precipitated or organic solvent extracted i. plasma or ii. CSF or iii. homogenates of whole brains from Compound 1 or Compound 2 treated rats) were subjected to LCMS and were compared to freshly prepared standard curves on exactly the same LCMS instrument. The standard curves were prepared of Compound 1 or Compound 2 at known concentrations dispensed (spiked) into rat plasma (supplied by Bioivt formerly Bioreclamation, Cat. No. RAT00PLK2Y2N, Bioivt, Hicksville N.Y. USA) as Sprague Dawley male rat plasma prepared by collection of blood into potassium-EDTA “K2-EDTA” tubes, centrifuged and stored at −80 C until usage). […] The lower limit of quantification of Compound 1 or Compound 2 based on the conditions used was 1 ng/ml and the standard curve was linear to 5,000 ng/ml. […]
Acute administration of test compound 1 or test compound 2 by routes described (either PO, SC or IV) was done to rats and samples collected at the timepoints described for subsequent extraction, dissolution and quantitative LCMS bioanalysis. […]

[2] = Irwin neurological test battery in rats (SAD and MAD studies); type: in vivo, rat
Experimental: Rats were subjected to the Irwin Test Procedure of in vivo assessment of test compounds effects on neurological functions in rodents which was modified for rats. Rats were acclimated to the procedure room for at least 30 minutes. Rats were assessed for the features described below. Each rat was scored on a 0 to 3 scale with 0 representing the response in a normal animal and 3 representing a maximally impaired animal. Note that it is normal for an animal to score within the 0 to 1 range during Irwin testing. Animals were tested 55-60 min after test compound administration. Reference: Irwin, S. 20 Sep. 1968; “Comprehensive observational assessment: la. A symptomatic quantitative procedure for assessing the behavioral and physiologic state of the mouse” Psychopharmacologia 13(3): 222-257.
Single Ascending Dose (SAD) 1-day acute administration of test compound 2 by the oral PO route of administration to rats and samples collected at the timepoints described for subsequent extraction, dissolution and quantitative LCMS bioanalysis. […]
Multiple Ascending Dose (MAD) 5-day once daily administration of test compounds was done to rats and samples collected at the timepoints described for subsequent extraction, dissolution and quantitative LCMS bioanalysis. […]

- compound levels in vivo by LCMS [1]: below limit of detection
Compound: O=C(O)[C@@H]1C[C@H]2CC(F)(CCc3nnn[nH]3)CC[C@H]2CN1 (stereo in doubt) [Compound 2, (3S,4aS,6R,8aR)-6-fluoro-6-[2-(1H-1,2,3,4-tetrazol-5-yl)ethyl]-decahydroisoquinoline-3-carboxylic acid]
- Irwin test observations, SAD study ([2]; oral 10-200 mg/kg, day 1, 55-60 minutes post treatment): Normal or very little change from normal was observed for many of the doses
- Irwin test observations, MAD study ([2]; oral once daily 5 days, day 3 and day 5, 55-60 minutes post treatment): Normal or very little change from normal was observed for many of the doses
